Measured values: PubChem BioAssay AID248 (DTP/NCI, 2004)
Several values for one entry are separate records, joined by “and”; a condition that tells them apart may be missing. Equal values may be shown once. Inconclusive results and toxic doses are left out.

Tested on: L1210 leukemia ip in BDF1 mice, survival T/C
Assay: NCI In Vivo Anticancer Drug Screen. Data for tumor model L1210 Leukemia (intraperitoneal) in B6D2F1 (BDF1) mice
Conditions: endpoint: mean survival time, higher = longer survival
Outline: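 In this screen, tumor-bearing mice given compound are compared to those given vehicle, and their survival values are reported as a treated-to-control quotient.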

[1] = dose: 100.0 mg/kg/injection, schedule: Q04DX003 (ip), vehicle: Klucel (hydroxypropylcellulose) (HPC)
[2] = dose: 200.0 mg/kg/injection, schedule: Q04DX003 (ip), vehicle: Klucel (hydroxypropylcellulose) (HPC)
[3] = dose: 25.0 mg/kg/injection, schedule: Q01DX009 (ip), vehicle: Klucel (hydroxypropylcellulose) (HPC)
[4] = dose: 50.0 mg/kg/injection, schedule: Q01DX009 (ip), vehicle: Klucel (hydroxypropylcellulose) (HPC)
[5] = dose: 200.0 mg/kg/injection, schedule: Q01DX001 (ip), vehicle: Klucel (hydroxypropylcellulose) (HPC)
[6] = dose: 100.0 mg/kg/injection, schedule: Q04DX003 (ip), vehicle: saline with Tween-80
[7] = dose: 200.0 mg/kg/injection, schedule: Q04DX003 (ip), vehicle: saline with Tween-80
[8] = dose: 400.0 mg/kg/injection, schedule: Q04DX003 (ip), vehicle: saline with Tween-80
[9] = dose: 100.0 mg/kg/injection, schedule: Q01DX001 (ip), vehicle: Klucel (hydroxypropylcellulose) (HPC)
[10] = dose: 100.0 mg/kg/injection, schedule: Q04DX003 (ip), vehicle: acetone
[11] = dose: 200.0 mg/kg/injection, schedule: Q04DX003 (ip), vehicle: acetone
[12] = dose: 400.0 mg/kg/injection, schedule: Q04DX003 (ip), vehicle: acetone
[13] = dose: 100.0 mg/kg/injection, schedule: Q01DX009 (ip), vehicle: Klucel (hydroxypropylcellulose) (HPC)
[14] = dose: 200.0 mg/kg/injection, schedule: Q01DX009 (ip), vehicle: Klucel (hydroxypropylcellulose) (HPC)
[15] = dose: 400.0 mg/kg/injection, schedule: Q01DX009 (ip), vehicle: Klucel (hydroxypropylcellulose) (HPC)

For `Oc1ccc2ccccc2c1/C=N/N=C/c1c(O)ccc2ccccc12`, the T/C [1] was 96 % of control, the T/C [2] was 91 % of control and the T/C (dose: 300.0 mg/kg/injection, schedule: Q01DX009 (ip), vehicle: Klucel (hydroxypropylcellulose) (HPC)) was 98 % of control. For the same molecule, the T/C (dose: 400.0 mg/kg/injection, schedule: Q04DX003 (ip), vehicle: Klucel (hydroxypropylcellulose) (HPC)) was 88 % of control.
With `C[C@]12CC[C@@H]3c4cc([N+]#N)c([O-])cc4CC[C@H]3[C@@H]1CCC2=O` the T/C [3] was 103 % of control, the T/C (dose: 25.0 mg/kg/injection, schedule: Q04DX002 (ip), vehicle: Klucel (hydroxypropylcellulose) (HPC)) was 96 % of control and the T/C [4] was 92 % of control. For the same molecule, the T/C (dose: 50.0 mg/kg/injection, schedule: Q04DX002 (ip), vehicle: Klucel (hydroxypropylcellulose) (HPC)) was 122 % of control and the T/C (dose: 100.0 mg/kg/injection, schedule: Q04DX002 (ip), vehicle: Klucel (hydroxypropylcellulose) (HPC)) was 100 % of control and 101 % of control.
In the case of `O=NN(CCF)C(=O)NC1CS(=O)(=O)CS(=O)(=O)C1`, the T/C (dose: 6.25 mg/kg/injection, schedule: Q01DX001 (ip), vehicle: other) is reported as 164 % of control, the T/C (dose: 12.5 mg/kg/injection, schedule: Q01DX001 (ip), vehicle: other) is reported as 204 % of control and the T/C (dose: 25.0 mg/kg/injection, schedule: Q01DX001 (ip), vehicle: other) is reported as 255 % of control. The T/C (dose: 50.0 mg/kg/injection, schedule: Q01DX001 (ip), vehicle: other) was 262 % of control, the T/C (dose: 75.0 mg/kg/injection, schedule: Q01DX001 (ip), vehicle: other) was 296 % of control and the T/C (dose: 100.0 mg/kg/injection, schedule: Q01DX001 (ip), vehicle: other) was 205 % of control.
For `CCOC(=O)N/N=C/c1ccccc1`, the T/C [5] was 108 % of control and the T/C (dose: 400.0 mg/kg/injection, schedule: Q01DX001 (ip), vehicle: Klucel (hydroxypropylcellulose) (HPC)) was 118 % of control.
`CN(C)N=Nc1ccc([N+](=O)[O-])cc1Cl` was tested, and the T/C [6] was 101 % of control, the T/C (dose: 134.0 mg/kg/injection, schedule: Q01DX009 (ip), vehicle: saline with Tween-80) was 113 % of control and the T/C (dose: 200.0 mg/kg/injection, schedule: Q01DX009 (ip), vehicle: saline with Tween-80) was 115 % of control. The T/C [7] was 105 % of control and the T/C [8] was 112 % of control.
With `CCCCCC[Se][Se]CCCCCC` the T/C (dose: 6.25 mg/kg/injection, schedule: Q01DX009 (ip), vehicle: Klucel (hydroxypropylcellulose) (HPC)) was 96 % of control, the T/C (dose: 12.5 mg/kg/injection, schedule: Q01DX009 (ip), vehicle: Klucel (hydroxypropylcellulose) (HPC)) was 96 % of control and the T/C [3] was 91 % of control. The T/C (dose: 25.0 mg/kg/injection, schedule: Q04DX003 (ip), vehicle: Klucel (hydroxypropylcellulose) (HPC)) was 90 % of control and the T/C (dose: 50.0 mg/kg/injection, schedule: Q04DX003 (ip), vehicle: Klucel (hydroxypropylcellulose) (HPC)) was 103 % of control and 107 % of control.
With `NS(=O)(=O)c1ccc(N=Nc2ccc(O)c3ncccc23)cc1` the T/C (dose: 100.0 mg/kg/injection, schedule: Q01DX001 (ip), vehicle: saline) was 101 % of control, the T/C (dose: 200.0 mg/kg/injection, schedule: Q01DX001 (ip), vehicle: saline) was 98 % of control and the T/C (dose: 400.0 mg/kg/injection, schedule: Q01DX001 (ip), vehicle: saline) was 98 % of control.
`CC[n+]1ccc(-c2ccc(NC(=O)c3ccc(C(=O)Nc4ccc(-c5cc[n+](CC)cc5)cc4)cc3)cc2)cc1` was tested, and the T/C (dose: 2.5 mg/kg/injection, schedule: Q01DX015 (ip), vehicle: carboxymethylcellulose (CMC)) was 224 % of control, the T/C (dose: 3.7 mg/kg/injection, schedule: Q01DX001 (ip), vehicle: carboxymethylcellulose (CMC)) was 118 % of control and the T/C (dose: 5.0 mg/kg/injection, schedule: Q01DX015 (ip), vehicle: carboxymethylcellulose (CMC)) was 157 % of control. The T/C (dose: 7.5 mg/kg/injection, schedule: Q01DX001 (ip), vehicle: carboxymethylcellulose (CMC)) was 176 % of control, the T/C (dose: 10.0 mg/kg/injection, schedule: Q01DX015 (ip), vehicle: carboxymethylcellulose (CMC)) was 123 % of control and the T/C (dose: 15.0 mg/kg/injection, schedule: Q01DX001 (ip), vehicle: carboxymethylcellulose (CMC)) was 163 % of control. For the same molecule, the T/C (dose: 20.0 mg/kg/injection, schedule: Q01DX015 (ip), vehicle: carboxymethylcellulose (CMC)) was 94 % of control, the T/C (dose: 30.0 mg/kg/injection, schedule: Q01DX001 (ip), vehicle: carboxymethylcellulose (CMC)) was 177 % of control and 194 % of control and the T/C (dose: 30.0 mg/kg/injection, schedule: Q01DX015 (ip), vehicle: carboxymethylcellulose (CMC)) was 86 % of control. For the same molecule, the T/C (dose: 40.0 mg/kg/injection, schedule: Q01DX001 (ip), vehicle: carboxymethylcellulose (CMC)) was 192 % of control and 296 % of control, the T/C (dose: 60.0 mg/kg/injection, schedule: Q01DX001 (ip), vehicle: carboxymethylcellulose (CMC)) was 211 % of control and 305 % of control and 307 % of control and the T/C (dose: 90.0 mg/kg/injection, schedule: Q01DX001 (ip), vehicle: carboxymethylcellulose (CMC)) was 157 % of control and 228 % of control. The T/C (dose: 150.0 mg/kg/injection, schedule: Q01DX001 (ip), vehicle: carboxymethylcellulose (CMC)) was 103 % of control and the T/C (dose: 225.0 mg/kg/injection, schedule: Q01DX001 (ip), vehicle: carboxymethylcellulose (CMC)) was 91 % of control.
`O=c1c2c3ccccc3c(=O)c=2c2ccccc12` was tested, and the T/C [9] was 98 % of control and the T/C [5] was 103 % of control.
`CCC(NC)c1ccccc1` (centres undefined) was tested, and the T/C (dose: 25.0 mg/kg/injection, schedule: Q04DX002 (ip), vehicle: saline) was 104 % of control, the T/C (dose: 50.0 mg/kg/injection, schedule: Q04DX002 (ip), vehicle: saline) was 89 % of control and the T/C (dose: 100.0 mg/kg/injection, schedule: Q04DX002 (ip), vehicle: saline) was 106 % of control.
In the case of `CCCCCCCCCCCCCC[N+](C)(C)CCCCCCCCCCCCCC`, the T/C (dose: 12.5 mg/kg/injection, schedule: Q01DX009 (ip), vehicle: saline) is reported as 108 % of control, the T/C (dose: 12.5 mg/kg/injection, schedule: Q04DX003 (ip), vehicle: saline) is reported as 104 % of control and the T/C (dose: 25.0 mg/kg/injection, schedule: Q01DX009 (ip), vehicle: saline) is reported as 106 % of control. The T/C (dose: 25.0 mg/kg/injection, schedule: Q04DX003 (ip), vehicle: saline) was 105 % of control, the T/C (dose: 50.0 mg/kg/injection, schedule: Q01DX009 (ip), vehicle: saline) was 90 % of control and the T/C (dose: 50.0 mg/kg/injection, schedule: Q04DX003 (ip), vehicle: saline) was 102 % of control.
`C=CCNC(=O)Oc1cccc(NC(=O)OC)c1` was tested, and the T/C [6] was 107 % of control, the T/C [7] was 108 % of control and the T/C [8] was 105 % of control.
`CN(C)c1ccc2nc(C(=O)O)c(=O)n(C)c2c1` was tested, and the T/C [9] was 101 % of control and the T/C [5] was 97 % of control.
In the case of `Clc1cc(I)cc(Cl)c1Cl`, the T/C [10] is reported as 108 % of control, the T/C [11] is reported as 103 % of control and the T/C [12] is reported as 91 % of control.
In the case of `Cc1ccc([N+](=O)[O-])cc1NC(=O)Nc1cccc(C(F)(F)F)c1`, the T/C [3] is reported as 102 % of control, the T/C [4] is reported as 92 % of control and the T/C [13] is reported as 86 % of control. For the same molecule, the T/C [14] was 87 % of control and the T/C [15] was 87 % of control.
`COc1ccc(NC(=O)Oc2ccccc2Cc2ccccc2)cc1` was tested, and the T/C [4] was 95 % of control, the T/C [13] was 94 % of control and the T/C [1] was 97 % of control. For the same molecule, the T/C [14] was 103 % of control and the T/C [2] was 91 % of control.
For `O=C1C=CC(=O)N1c1ccc(Br)cc1` (tested in a mixture with another compound), the T/C [10] was 96 % of control, the T/C [11] was 89 % of control and the T/C [12] was 91 % of control.
In the case of `CCOP(=O)(Nc1c(Cl)cc2c(c1Cl)Cc1cc([N+](=O)[O-])ccc1-2)OCC`, the T/C (dose: 50.0 mg/kg/injection, schedule: Q01DX001 (ip), vehicle: carboxymethylcellulose (CMC)) is reported as 103 % of control, the T/C (dose: 100.0 mg/kg/injection, schedule: Q01DX001 (ip), vehicle: carboxymethylcellulose (CMC)) is reported as 100 % of control and the T/C (dose: 200.0 mg/kg/injection, schedule: Q01DX001 (ip), vehicle: carboxymethylcellulose (CMC)) is reported as 100 % of control. The T/C (dose: 400.0 mg/kg/injection, schedule: Q01DX001 (ip), vehicle: carboxymethylcellulose (CMC)) was 103 % of control.
With `CCCCN1C(=O)C2CCC34C5C(=O)N(CCCC)C(=O)C5C5C=CC3(C2C1=O)C1C(=O)N(CCCC)C(=O)C1N54` (centres undefined) the T/C [4] was 99 % of control, the T/C [13] was 99 % of control and the T/C [14] was 97 % of control. For the same molecule, the T/C [15] was 97 % of control.
